Assay results reported in US20030129664A1, “Novel Assays” (priority 1999, published 2003).

Experiments:
RP-23 receptor = molecular target: T1, RP-23 receptor (Mus musculus, UniProt P30731); assay: FLIPR functional assay of intracellular calcium mobilization (Fluo-3) in HEK-293 cells expressing RP-23 receptor with Gαqi5; type: cell-based
T1 construct: expressed in transfected cells; G418 and hygromycin selection
Method: The RP-23 gene (Harrigan et al., Molecular Endocrinol. 5:1331-1338 (1991)) was obtained and used to generate a mammalian expression vector. Specifically, 40 μg of RP-23 receptor DNA was digested with 100 units of EcoRI enzyme (Pharmacia) (Lambda ZAP II) at 37 degrees C., isolated on a 1% agarose gel and subcloned into the Eco RI site of pcDNA 3.0 (InVitrogen, San Diego, Calif.). The expression vector so produced was called pcDNA 3.0-RP-23. Plasmid DNA was prepared using the Qiaprep system from Qiagen.
HEK-293 cells were transfected with pcDNA 3.0-RP-23 using the calcium-phosphate method and subsequently transfected with DNA encoding a chimeric G protein (Gαqi5). This is Gq alpha with the C-terminal amino acids changed from EYNLV to DCGLF. The entire protein was subcloned in an expression vector (pCEP, Molecular Devices). […] The presence of mRNA specific for clone RP-23 was assessed by Northern Blot Analysis and by the reverse transcriptase polymerase chain reaction (RT-PCR). […]
A functional assay was performed with FLIPR using the fluorescent calcium indicator dye Fluo-3 (Molecular Probes) on a 96 well platform. […] The cells were analyzed using the FLIPR system to measure the mobilization of intracellular calcium in response to different compounds.

parental HEK-293 cells = assay: FLIPR calcium assay in control cells (non-transfected HEK-293, other receptors or Gαqi5 alone); type: cell-based; conditions: cells transfected with other receptors or Gαqi5 alone
Method: A functional assay was performed with FLIPR using the fluorescent calcium indicator dye Fluo-3 (Molecular Probes) on a 96 well platform. HEK-293 cells, either expressing the receptor with the chimeric G protein (Gαqi5) or wild type cells were loaded with Fluo-3 as follows. Stable HEK-293 clones expressing RP-23 receptor with Gαqi5and/or cells expressing RP-23R alone, or parental cells were plated at a density of 70,000 cells/well in a 96 well plate. On the day of the experiment, the RP-23 receptor expressing cells were loaded with fluorescent solution (Dulbecco's modified medium with 10% fetal bovine serum containing 4 μM Fluo-3 and […] pluronic acid). The cells were incubated at 37° C. for one hour in a humidified chamber. Following the incubation, cells were Washed five times in Hanks' with 20 mM Hepes and 0.1% BSA (pH 7.4). The cells were analyzed using the FLIPR system to measure the mobilization of intracellular calcium in response to different compounds.
HEK-293 cells that endogenously express some GPCRs such as PACAP receptors can be used as an internal control for assays. Background signal was established with all of the compounds in the parental HEK-293 cells (non-transfected) or parental HEK-293 cells transfected with Gαqi5 chimeric protein using the FLIPR assay. […]

T1 sequence (P30731 18-423): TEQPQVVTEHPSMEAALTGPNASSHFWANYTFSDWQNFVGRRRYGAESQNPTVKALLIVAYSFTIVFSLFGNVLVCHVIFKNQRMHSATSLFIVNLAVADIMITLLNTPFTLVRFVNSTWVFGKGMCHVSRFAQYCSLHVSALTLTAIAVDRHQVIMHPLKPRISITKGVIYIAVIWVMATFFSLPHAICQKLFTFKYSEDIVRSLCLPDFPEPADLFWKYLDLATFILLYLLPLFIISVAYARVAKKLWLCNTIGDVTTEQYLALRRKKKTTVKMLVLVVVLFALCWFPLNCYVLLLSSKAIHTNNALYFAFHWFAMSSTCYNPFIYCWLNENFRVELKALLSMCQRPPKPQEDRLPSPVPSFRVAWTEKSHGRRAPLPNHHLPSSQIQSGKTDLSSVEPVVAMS

dose-response relationship of calcium response (RP-23 receptor; cells transfected with RP-23 and Gαqi5): dose-response relationship
SMILES: CCCCCCCCCCCCC/C=C/[C@@H](O)[C@@H](N)COP(=O)(O)O [sphingosine-1-PO4]
calcium response (FLIPR signal) compared to control cells (RP-23 receptor; HEK-293 cells expressing RP-23 receptor and Gαqi5 chimeric protein, compounds dissolved at 3 μM, compared with parental HEK-293 and HEK-293 transfected with Gαqi5): consistently elicited a significant signal
dose-response relationship of calcium response in control cells (parental HEK-293 cells): not in non-transfected cells or in cells transfected with other receptors or Gαqi5 alone
